From patent publication US12576083B2, “Combinational therapy of LSD1 inhibitors with P21 activators in the treatment of cancer” (Istituto Europeo di Oncologia S.r.l., priority 2017, dated 2026)
Entries after “also recorded” stand apart in the source; their conditions may differ.

Legend:
[1] = test system: Acute promyelocytic leukemia (APL) NB4 cells; assay: NB4 cells treated with MC2580: proliferation, Wright-Giemsa staining, serial replating CFU assay; type: cell-based; conditions: 2 μM, 6 days, DMSO control
Procedure: FIGS. 1A-1C. […] (FIG. 1A) Relative proliferation of NB4 APL cells treated with MC2580 ([…]) and RA ([…]) for indicated times (DMSO serves as control). (FIG. 1B) Representative light micrographs show Wright-Giemsa staining of NB4 cell after treatment for 6 days. (DMSO serves as a control). (FIG. 1C) Analysis of the proliferative potential of treated NB4 cells by serial replating assay. (DMSO serves as control). (RA high(h)=retinoic acid, 1 μM, LSD1i=LSD1 inhibitor=MC2580).
Acute promyelocytic leukemia (APL) NB4 cells were treated with 2 μM LSD1 inhibitor MC2580, 1 μM retinoic acid (RA), and DMSO (control) for 6 days. The proliferation of the treated cells were quantified before treatment and during each of the 6 days (FIG. 1A). The treated cells were analyzed under light micrographs using Wright-Giemsa staining (FIG. 1B). The proliferation potential of the treated cells were analyzed by serial replating and Colony-Forming Unit (CFU) Assay (FIG. 1C).

[2] = test system: Acute promyelocytic leukemia (APL) UF1 cells; assay: UF1 cells treated with MC2580: proliferation and Wright-Giemsa staining; type: cell-based; conditions: 2 μM, 7 days, DMSO control
Procedure: (§1) FIGS. 2A-2E. […] (FIG. 2A) Relative proliferation of UF1 cells treated with MC2580 (2 μM) and/or retinoic acid (10 nM) for 1 week. (FIG. 2B) Representative light micrograph show Wright-Giemsa staining of UF1 cell after treatment for 1 week. […] Values are normalized against GAPDH. (FIG. 2D) Immunoblot of PML-RARα in treated UF1 cells with indicated inhibitors. LSD1 inhibitors induces differentiation without PML-RARα degradation. (tubulin serves as control). (FIG. 2E) summary of cell-cycle status of UF1 cells following 1 week treatment with indicated inhibitors. (retinoic acid low(l)=10 nM, LSD1i=LSD1 inhibitor=MC2580).
(§2) Acute promyelocytic leukemia (APL) UF1 cells were treated with 2 μM LSD1 inhibitor MC2580, 10 nM retinoic acid (RA), 2 μM LSD1 inhibitor MC2580 plus 10 nM RA, and DMSO (control) for 7 days. The proliferation of the treated cells were quantified before treatment and post-treatment from each of day 2 to day 7 (FIG. 2A). The cells following the 1 week treatment were analyzed under light micrographs using Wright-Giemsa staining (FIG. 2B). The LSD1-inhibition induced expression of CD11b gene expression were analyzed. The mRNA of CD11b of the treated cells under each condition were normalized using GAPDH (FIG. 2C). PML-RARα protein level in the treated cells was analyzed by immune-blotting using an antibody against PML-RARα. Immuno-blotting of tubulin was used as loading control. […]

[3] = test system: UF1 cells; assay: Cell cycle analysis of UF1 cells; type: cell-based; conditions: 1 week treatment
Procedure: Acute promyelocytic leukemia (APL) UF1 cells were treated with 2 μM LSD1 inhibitor MC2580, 10 nM retinoic acid (RA), 2 μM LSD1 inhibitor MC2580 plus 10 nM RA, and DMSO (control) for 7 days. The proliferation of the treated cells were quantified before treatment and post-treatment from each of day 2 to day 7 (FIG. 2A). The cells following the 1 week treatment were analyzed under light micrographs using Wright-Giemsa staining (FIG. 2B). The LSD1-inhibition induced expression of CD11b gene expression were analyzed. The mRNA of CD11b of the treated cells under each condition were normalized using GAPDH (FIG. 2C). PML-RARα protein level in the treated cells was analyzed by immune-blotting using an antibody against PML-RARα. Immuno-blotting of tubulin was used as loading control. (FIG. 2D). […] Cell cycle analysis were performed following the 1 week treatment. […] (FIG. 2E).
UF1 cells were treated with p21-shRNA, scramble shRNA (SCR), LSD1 inhibitor MC2580, p21-shRNA plus MC2580, scramble shRNA (SCR) plus MC2580. Non-infected (NI) UF1 cells were included as control. The proliferation of the treated cells were quantified before treatment and post-treatment from each of day 2 to day 7 (FIG. 5C). The cells following the 1 week treatment were analyzed under light micrographs using Wright-Giemsa staining (FIG. 5D). Cell cycle analysis were performed following the 1 week treatment. […] (FIG. 5E).

[4] = test system: PML-RARα; assay: Immunoblot of PML-RARα in treated UF1 cells; type: cell-based; conditions: tubulin loading control
Procedure: as §1, §2

[5] = test system: CD11b gene; assay: CD11b gene expression in UF1 cells (mRNA normalized against GAPDH); type: cell-based
Procedure: as §1, §2

[6] = test system: p21; assay: p21 protein (Western-blot) and p21 gene expression in UF1 cells; type: cell-based
Procedure: FIGS. 6A-6B. LSD1 inhibition leads to further upregulation of P21 RNA and protein level but not in P21KD cells. (FIG. 6A) Immunoblot of P21 in MC2580-treated UF1 cells. […] (SCR=Scramble shRNA, NI=Not Infected, LSD1i=LSD1 inhibitor=MC2580).
UF1 cells were treated with p21-shRNA, scramble shRNA (SCR), LSD1 inhibitor MC2580, p21-shRNA plus MC2580, scramble shRNA (SCR) plus MC2580. Non-infected (NI) UF1 cells were included as control. Immuno-blotting of tubulin was used as loading control.

[7] = test system: Kasumi cells; assay: Cell cycle analysis of Kasumi cells; type: cell-based; conditions: 1 week treatment
Procedure: (§3) Kasumi cells were treated with p21-shRNA, scramble shRNA (SCR), LSD1 inhibitor MC2580, p21-shRNA plus MC2580, scramble shRNA (SCR) plus MC2580. Non-infected (NI) Kasumi cells were included as control. The proliferation of the treated cells were quantified before treatment and post-treatment from day 2, day 4, and day 7 (FIG. 7C). The cells following the 1 week treatment were analyzed under light micrographs using Wright-Giemsa staining (FIG. 7D). Cell cycle analysis were performed following the 1 week treatment.

[8] = test system: p21; assay: Western-blot of p21 in Kasumi cells; type: cell-based
Text: FIGS. 7A-7F. […] (FIG. 7C) Relative proliferation of Kasumi cells infected with SCR (control) or p21 shRNA treated with MC2580. (FIG. 7D) Representative light micrograph show Wright-Giemsa staining of Kasumi cells after 1 week treatment with indicated inhibitors. (FIG. 7E) summary of cell-cycle status of Kasumi cells following 1 week treatment with indicated inhibitors. (FIG. 7F) Immunoblot of P21 in MC2580-treated Kasumi cells. (SCR=Scramble shRNA, NI=Not Infected, LSD1i=LSD1 inhibitor=MC2580).
as §3

[9] = test system: small cell lung carcinoma NCI-H69 cells; assay: Cell cycle analysis of NCI-H69 cells; type: cell-based; conditions: 1 week treatment
Procedure: (§4) FIGS. 8A-8D. […] (FIG. 8B) Relative proliferation of NCI-H69 cells infected with SCR (control) or p21 shRNA treated with MC2580. (FIG. 8C) Summary of cell-cycle status of NCI-H69 cells following 10 days treatment with indicated inhibitors. (FIG. 8D) Immunoblot of P21 in MC2580-treated NCI-H69 cells. (SCR=Scramble shRNA, NI=Not Infected, LSD1i=LSD1 inhibitor=MC2580).
as §3, with “NCI-H69” for “Kasumi”, “4, day 6, day 8,” for “4,”, “10” for “7”, “8B).” for “7C). The cells following the 1 week treatment were analyzed under light micrographs using Wright-Giemsa staining (FIG. 7D).”

[10] = test system: p21; assay: Western-blot of p21 in NCI-H69 cells; type: cell-based
Procedure: as §4
as §3, with “NCI-H69” for “Kasumi”, “4, day 6, day 8,” for “4,”, “10” for “7”, “8B).” for “7C). The cells following the 1 week treatment were analyzed under light micrographs using Wright-Giemsa staining (FIG. 7D).”

[11] = test system: NB4 cells; assay: NB4 cells treated with HDAC inhibitors with or without MC2580: proliferation, staining, cell cycle analysis; type: cell-based; conditions: versus untreated control cells (Scr-DMSO), 1 week treatment
Text: FIGS. 10A-10D. […] (FIG. 10A) Relative proliferation of NB4 cells infected with SCR (control) or p21 shRNA and treated with HDAC inhibitor and/or MC2580. (FIG. 10B and FIG. 10C) Representative light micrograph show Wright-Giemsa staining of NB4 cells infected with SCR (control) or p21 shRNA and treated with HDAC inhibitor and/or MC2580. (FIG. 10D) Summary of cell-cycle status of NB4 cells infected with SCR (control) or p21 shRNA and treated with HDAC inhibitor and/or MC2580. (SCR=Scramble shRNA, NI=Not Infected, LSD1i=LSD1 inhibitor=MC2580).
NB4 cells were treated with HDAC inhibitors, trichostatin A (TSA) and suberoylanilide hydroxamic acid (SAHA), in combination with p21-shRNA or scramble shRNA (SCR), with or without LSD1 inhibitor MC2580. NB4 cells with p21 knock-down without HDAC inhibitor treatment (p21KD-DMSO), NB4 cells without p21 knock-down and without HDAC inhibitor treatment (Scr-DMSO) were included as control. The proliferation of the treated cells were quantified before treatment and post-treatment from day 2, day 4, and day 6 (FIG. 10A). The treated cells were analyzed under light micrographs using Wright-Giemsa staining (FIG. 10B and FIG. 10C). Cell cycle analysis were performed following the 1 week treatment.

[12] = test system: primary human melanoma cell lines (MMC-27B, MMC-49, MMC-936, MMC-35, MMC-38B, MMC-34); assay: Proliferation of six primary human melanoma cell lines with or without MC2580; type: cell-based; conditions: MC2580 2 μM, 6 days, versus cell lines having a shorter doubling time
Procedure: FIG. 14 depicts the proliferation of six primary human melanoma cell lines (MMC-27B, MMC-49, MMC-936, MMC-35, MMC-38B, MMC-34) over 6 days with or without treatment of LSD1 inhibitor MC2580 (2 μM) was analyzed. “MC” stands for MC2580 treated cells. “DMSO” stands for control cells treated with DMSO.
The proliferation of six primary human melanoma cell lines (MMC-27B, MMC-49, MMC-936, MMC-35, MMC-38B, MMC-34) over 6 days with or without treatment of an LSD1 inhibitor (MC2580) was analyzed. “MC” stands for MC2580 treated cells. Control cells (“DMSO”) were treated with DMSO.

[13] = test system: MMC-38B and MMC-34 cells; assay: Proliferation of MMC-38B and MMC-34 melanoma cells with shRNA and MC2580; type: cell-based, human; conditions: MMC-38B and MMC-34, 6 days, rescued by p21 knock-down
Procedure: FIG. 16A depicts relative proliferation of melanoma cells (MMC-38B and MMC-34) that were treated with p21-shRNA (“P21KD-DMSO”), scramble shRNA (“SCR-DMSO”), scramble shRNA plus LSD1 inhibitor MC2580 (“SCR-LSD1i”), or p21-shRNA plus MC2580 (“P21KD-LSD1i”). Data are presented as mean of triplicates±SD.
(§5) MMC-38B and MMC-34 cells were treated with p21-shRNA (“P21KD-DMSO”), scramble shRNA (“SCR-DMSO”), scramble shRNA plus LSD1 inhibitor (MC2580) (“SCR-LSD1i”), or p21-shRNA plus MC2580 (“P21KD-LSD1i”). Tubulin was used as a loading control.

[14] = test system: MMC-38B and MMC-34 cells; assay: Cell cycle analysis of MMC-38B and MMC-34 melanoma cells; type: cell-based, human; conditions: MMC-38B and MMC-34, rescued by p21 knock-down
Procedure: FIG. 16B depicts cell-cycle status of melanoma cells analyzed in FIG. 16A.
as §5

[15] = test system: p21; assay: p21 expression (immunoblotting) in MMC-38B and MMC-34 melanoma cells; type: cell-based, human; conditions: MMC-38B and MMC-34, rescued by p21 knock-down
Procedure: FIG. 16C depicts the p21 expression level in melanoma cells analyzed in FIG. 16A.
as §5

[16] = test system: p21 gene; assay: Chromosome Conformation Capture assays (3C-qPCR) in UF1 and NB4 cells; type: cell-based; conditions: UF1 and NB4 cells, 12, 24, or 36 hours
Procedure: FIG. 27 depicts results from chromosome conformation capture assays (3C-qPCR) performed with chromatin from UF1 and NB4 cells that were treated for indicated times with the LSD1 inhibitor MC2580. (NT: not treated).
Luciferase reporter assays were performed to measure the activity of enhancer 1 (“E1”) and enhancer 1 (“E2”) of the p21 gene promoter in 293T cells and the results are depicted in FIG. 26. The pGL3 plasmid without the enhancer region (empty) was used as a negative control. Chromosome Conformation Capture assays (3C-qPCR) were performed with chromatin from UF1 and NB4 cells that were treated with the LSD1 inhibitor MC2580 for 12, 24, or 36 hours and the results are depicted in FIG. 27. Untreated cells (“Neg”) were included as control.

NC1CC1c1ccc(NC(=O)C(Cc2ccccc2)NC(=O)OCc2ccccc2)cc1 (centres unmarked) [MC2580]
sensitivity of NB4 cells to LSD1 inhibitor [1]: resistant to LSD1 inhibition; also recorded: largely insensitive
sensitivity of UF1 cells to LSD1 inhibitor [2]: sensitive
UF1 cells arrested at the G0/G1 phase [3]: More UF1 cells were arrested at the G0/G1 phase
UF1 cell differentiation and PML-RARα degradation [4]: induces UF1 cells differentiation without PML-RARα degradation
expression of the CD11b gene (myeloid differentiation marker) [5]: induces expression of the CD11b gene
p21 gene (CDKN1A) expression in UF1 cells [6]: induces p21 expression; also recorded: expressed at a higher level
p21 protein level in UF1 cells ([6]; Western-blot, tubulin loading control): increased
Kasumi cells arrested at the G0/G1 phase [7]: More Kasumi cells were arrested at the G0/G1 phase
p21 protein level in Kasumi cells [8]: increased
NCI-H69 cells arrested at the G0/G1 phase [9]: More NCI-H69 cells were arrested at the G0/G1 phase
p21 protein level in NCI-H69 cells [10]: increased
NB4 cells arrested at the G0/G1 phase, LSD1 inhibitor alone [11]: More NB4 cells were arrested at the G0/G1 phase
proliferation of slow-cycling melanoma cell lines (MMC-38B, MMC-34) [12]: more affected
cell growth of human primary melanoma cells [13]: cell growth inhibition
cell cycle of human primary melanoma cells [14]: cell cycle arrest
p21 expression in human primary melanoma cells [15]: increase of p21 expression
looping of E1 and E2 enhancer regions to the transcription start site of the p21 gene [16]: induces dynamic looping
